MIC, MIC50 and MIC90 data for three compounds are collected here from ChEMBL document CHEMBL1240377, “Comparison of anidulafungin MICs determined by the clinical and laboratory standards institute broth microdilution method (M27-A3 document) and Etest for Candida species isolates” (2010).

≈ marks a conversion by molar mass, not a printed value. *1 amine or outer side, *2 acyl side, *3 side chain or, on linkers, in order; H or OH if unused. Where a SMILES comes first, the peptide text is derived from it. Bridges are numbered along the chain shown (N, C = ends). [ ]: non-standard residue; d: D form. The star is where a group is joined. hTyr(3S-OH,4S-OH,3'-OSO3H) = N[C@H](C(=O)O)[C@H](O)[C@@H](O)c1ccc(O)c(OS(=O)(=O)O)c1; pTerphenylCO(4''-OnC5H11) = CCCCCOc1ccc(-c2ccc(-c3ccc(C(=O)*)cc3)cc2)cc1; Orn(4R-OH,5R-OH) = O=C([C@H](C[C@@H](O)[C@@H](O)N[*:3])N[*:1])[*:2]; hTyr(3S-OH,4S-OH) = N[C@H](C(=O)O)[C@H](O)[C@@H](O)c1ccc(O)cc1; Pro(3S-OH,4S-Me) = C[C@H]1CN[C@H](C(=O)O)[C@H]1O; X1 = CCCCCOc1ccc(-c2cc(-c3ccc(C(=O)*)cc3)no2)cc1; Gln(3R-OH) = NC(=O)C[C@@H](O)[C@H](N)C(=O)O; Hyp = O=C(O)[C@@H]1C[C@@H](O)CN1

What all share (format): functional
The subject of test [1] is Candida albicans. The test can be described thus: Antimicrobial activity against caspofungin-resistant Candida albicans CAI4R1 expressing heterozygous […] mutant gene by CLSI M27-A3 broth microdilution method.
Test [2] deals with Candida albicans. The test can be described thus: Antimicrobial activity against caspofungin-resistant Candida albicans NR3 expressing homozygous […] mutant gene by CLSI M27-A3 broth microdilution method.
Test [3] concerns Pichia kudriavzevii. The test can be described thus: Antimicrobial activity against caspofungin-susceptible Issatchenkia orientalis CY-118 CLSI by M27-A3 broth microdilution method.
For test [4], the system named is Candida albicans. The test can be described thus: Antimicrobial activity against caspofungin-resistant Candida albicans T25 by CLSI M27-A3 broth microdilution method.
The subject of test [5] is Candida albicans. The test can be described thus: Antimicrobial activity against caspofungin-resistant Candida albicans T26 by CLSI M27-A3 broth microdilution method.
Test [6] deals with Candida albicans. The test can be described thus: Antimicrobial activity against caspofungin-resistant Candida albicans CAI4 by CLSI M27-A3 broth microdilution method.
Test [7] deals with Candida albicans. The test can be described thus: Antimicrobial activity against caspofungin-resistant Candida albicans T32 by CLSI M27-A3 broth microdilution method.
For test [8], the system named is Candida albicans. The test can be described thus: Antimicrobial activity against caspofungin-resistant Candida albicans NR4 expressing heterozygous […] mutant gene by CLSI M27-A3 broth microdilution method.
The subject of test [9] is Candida albicans. The test can be described thus: Antimicrobial activity against caspofungin-resistant Candida albicans NR2 expressing heterozygous […] mutant gene by CLSI M27-A3 broth microdilution method.
Test [10] concerns Clavispora lusitaniae. The test can be described thus: Antimicrobial activity against Clavispora lusitaniae ATCC 42720 after 24 hrs by Etest. The note with it: ATCC 42720, 24 h.
Test [11] relates to Candida albicans. The test can be described thus: Antimicrobial activity against caspofungin-resistant Candida albicans CAI4 by Etest.
Test [12] concerns Candida tropicalis. The test can be described thus: Antimicrobial activity against Candida tropicalis after 24 hrs by CLSI M27-A3 broth microdilution method.
The test system of test [13] is Clavispora lusitaniae. The test can be described thus: Antimicrobial activity against Clavispora lusitaniae ATCC 42720 after 24 hrs by CLSI M27-A3 broth microdilution method. As to conditions: ATCC 42720, 24 h.
Test [14] relates to Meyerozyma guilliermondii. The test can be described thus: Antimicrobial activity against Pichia guilliermondii ATCC 6260 after 24 hrs by CLSI M27-A3 broth microdilution method. As to conditions: ATCC 6260, 24 h.
Test [15] has as its system Candida albicans. The test can be described thus: Antimicrobial activity against caspofungin-resistant Candida albicans NR4 expressing heterozygous […] mutant gene by Etest.
Test [16] deals with Debaryomyces hansenii. The test can be described thus: Antimicrobial activity against Candida famata after 24 hrs by CLSI M27-A3 broth microdilution method.
Test [17] concerns Nakaseomyces glabratus. The test can be described thus: Antimicrobial activity against Candida glabrata after 24 hrs by Etest.
For test [18], the system named is Pichia kudriavzevii. The test can be described thus: Antimicrobial activity against Issatchenkia orientalis after 24 hrs by CLSI M27-A3 broth microdilution method.
In test [19] the test system is Pichia kudriavzevii. The test can be described thus: Antimicrobial activity against Issatchenkia orientalis after 24 hrs by Etest.
The subject of test [20] is Candida albicans. The test can be described thus: Antimicrobial activity against Candida albicans after 24 hrs CLSI M27-A3 broth microdilution method.
Test [21] concerns Pichia kudriavzevii. The test can be described thus: Antimicrobial activity against caspofungin-susceptible Candida krusei CY-118 by Etest.
The subject of test [22] is Debaryomyces hansenii. The test can be described thus: Antimicrobial activity against Candida famata after 24 hrs by Etest.
In test [23] the test system is Nakaseomyces glabratus. The test can be described thus: Antimicrobial activity against Candida glabrata after 24 hrs by CLSI M27-A3 broth microdilution method.
The subject of test [24] is Candida albicans. The test can be described thus: Antimicrobial activity against caspofungin-resistant Candida albicans NR3 expressing homozygous […] mutant gene by Etest.
For test [25], the system named is Candida parapsilosis. The test can be described thus: Antimicrobial activity against Candida parapsilosis after 24 hrs by Etest. The note with it: Lodderomyces parapsilosis.
The test system of test [26] is Candida parapsilosis. The test can be described thus: Antimicrobial activity against Candida parapsilosis after 24 hrs by CLSI M27-A3 broth microdilution method. As to conditions: Lodderomyces parapsilosis.
Test [27] deals with Candida albicans. The test can be described thus: Antimicrobial activity against caspofungin-resistant Candida albicans T32 by Etest.
Test [28] has as its system Candida albicans. The test can be described thus: Antimicrobial activity against Candida albicans after 24 hrs by Etest.
Test [29] has as its system Candida tropicalis. The test can be described thus: Antimicrobial activity against Candida tropicalis after 24 hrs by Etest.
Test [30] concerns Candida albicans. The test can be described thus: Antimicrobial activity against caspofungin-resistant Candida albicans CAI4R1 expressing heterozygous […] mutant gene by Etest.
Test [31] deals with Candida albicans. The test can be described thus: Antimicrobial activity against caspofungin-resistant Candida albicans T26 by Etest.
Test [32] relates to Candida albicans. The test can be described thus: Antimicrobial activity against caspofungin-resistant Candida albicans T25 by Etest.
For test [33], the system named is Candida albicans. The test can be described thus: Antimicrobial activity against caspofungin-resistant Candida albicans NR2 expressing heterozygous […] mutant gene by Etest.
Test [34] deals with Meyerozyma guilliermondii. The test can be described thus: Antimicrobial activity against Pichia guilliermondii ATCC 6260 after 24 hrs by Etest. As to conditions: ATCC 6260, 24 h.

With `CC[C@H](C)C[C@H](C)CCCCCCCCC(=O)N[C@H]1C[C@@H](O)[C@@H](NCCN)NC(=O)[C@@H]2[C@@H](O)CCN2C(=O)[C@H]([C@H](O)CCN)NC(=O)[C@H]([C@H](O)[C@@H](O)c2ccc(O)cc2)NC(=O)[C@@H]2C[C@@H](O)CN2C(=O)[C@H]([C@@H](C)O)NC1=O` [CASPOFUNGIN], the MIC was 4 µg/mL (≈ 3.66 µM) in [1]; 8 µg/mL (≈ 7.32 µM) in test [2]; 4 µg/mL (≈ 3.66 µM) in test [3]; 8 µg/mL (≈ 7.32 µM) in [4]; 8 µg/mL (≈ 7.32 µM) in [5]; ≤ 0.032 µg/mL in test [6]. Besides, the MIC is 0.25 µg/mL (≈ 0.229 µM) in test [7], 2 µg/mL (≈ 1.83 µM) in [8] and 4 µg/mL (≈ 3.66 µM) in test [9].
With `CCCCCOc1ccc(-c2cc(-c3ccc(C(=O)N[C@H]4C[C@@H](O)[C@@H](O)NC(=O)[C@@H]5[C@@H](O)[C@@H](C)CN5C(=O)[C@H]([C@H](O)CC(N)=O)NC(=O)[C@H]([C@H](O)[C@@H](O)c5ccc(O)c(OS(=O)(=O)O)c5)NC(=O)[C@@H]5C[C@@H](O)CN5C(=O)[C@H]([C@@H](C)O)NC4=O)cc3)no2)cc1` [MICAFUNGIN] (X1-[Orn(4R-OH,5R-OH)]T[Hyp][hTyr(3S-OH,4S-OH,3'-OSO3H)][Gln(3R-OH)][Pro(3S-OH,4S-Me)]; lactam 1-C), the MIC in test [1] is 0.25 µg/mL (≈ 0.197 µM); in [2], 1 µg/mL (≈ 0.787 µM); in test [3], 1 µg/mL (≈ 0.787 µM); in [4], 1 µg/mL (≈ 0.787 µM); in test [5], 1 µg/mL (≈ 0.787 µM); in test [6], ≤ 0.032 µg/mL. Besides, the values for the MIC in [7], in [8] and in [9] were ≤ 0.032 µg/mL, 0.25 µg/mL (≈ 0.197 µM) and 0.25 µg/mL (≈ 0.197 µM), respectively.
On to `CCCCCOc1ccc(-c2ccc(-c3ccc(C(=O)N[C@H]4C[C@@H](O)[C@@H](O)NC(=O)[C@@H]5[C@@H](O)[C@@H](C)CN5C(=O)[C@H]([C@@H](C)O)NC(=O)[C@H]([C@H](O)[C@@H](O)c5ccc(O)cc5)NC(=O)[C@@H]5C[C@@H](O)CN5C(=O)[C@H]([C@@H](C)O)NC4=O)cc3)cc2)cc1` [ANIDULAFUNGIN] ({pTerphenylCO(4''-OnC5H11)}-[Orn(4R-OH,5R-OH)]T[Hyp][hTyr(3S-OH,4S-OH)]T[Pro(3S-OH,4S-Me)]; lactam 1-C), for which the MIC is 0.06 µg/mL (≈ 0.0526 µM) in test [10]; ≤ 0.032 µg/mL in [11]; ≤ 0.016 µg/mL in test [12]; 0.03 µg/mL (≈ 0.0263 µM) in test [13]; 0.5 µg/mL (≈ 0.438 µM) in test [15]; 0.03 µg/mL (≈ 0.0263 µM) in test [16]. For the same compound, the MIC was 0.5 µg/mL (≈ 0.438 µM) in test [1]; 1 µg/mL (≈ 0.877 µM) in test [2]; 0.5 µg/mL (≈ 0.438 µM) in test [3]; ≤ 0.032 µg/mL in test [21]; 0.06 µg/mL (≈ 0.0526 µM) in test [22]; 32 µg/mL (≈ 28.1 µM) in [24]. The MIC was 1 µg/mL (≈ 0.877 µM) in test [4]; 1 µg/mL (≈ 0.877 µM) in test [5]; ≤ 0.032 µg/mL in test [27]; ≤ 0.032 µg/mL in [6]; ≤ 0.016 µg/mL in test [29]; 2 µg/mL (≈ 1.75 µM) in test [30]. Also, the MIC in [31] worked out at 0.5 µg/mL (≈ 0.438 µM); in test [7] it was 0.032 µg/mL (≈ 0.0281 µM); in test [32], 2 µg/mL (≈ 1.75 µM); in [33], 1 µg/mL (≈ 0.877 µM); in test [8] it was 0.25 µg/mL (≈ 0.219 µM); in test [9] it was 0.12 µg/mL (≈ 0.105 µM). The MIC50 in [10] was 0.06 µg/mL (≈ 0.0526 µM); in test [13], 0.03 µg/mL (≈ 0.0263 µM); in [14], 1 µg/mL (≈ 0.877 µM); in [16], 0.03 µg/mL (≈ 0.0263 µM); in test [17], 0.016 µg/mL (≈ 0.014 µM); in test [18] it was 0.03 µg/mL (≈ 0.0263 µM). Further, the MIC50 was 0.03 µg/mL (≈ 0.0263 µM) in [19]; 0.016 µg/mL (≈ 0.014 µM) in test [20]; 0.06 µg/mL (≈ 0.0526 µM) in test [22]; 0.03 µg/mL (≈ 0.0263 µM) in [23]; 2 µg/mL (≈ 1.75 µM) in [25]; 0.5 µg/mL (≈ 0.438 µM) in [26]. Moreover, the MIC50 came to 0.016 µg/mL (≈ 0.014 µM) in test [28] and 1 µg/mL (≈ 0.877 µM) in test [34]. Moreover, the MIC90 was 1 µg/mL (≈ 0.877 µM) in test [14]; 0.016 µg/mL (≈ 0.014 µM) in test [17]; 0.12 µg/mL (≈ 0.105 µM) in [18]; 0.5 µg/mL (≈ 0.438 µM) in test [19]; 0.25 µg/mL (≈ 0.219 µM) in [20]; 0.12 µg/mL (≈ 0.105 µM) in test [23]. Further, the MIC90 in test [25] worked out at 8 µg/mL (≈ 7.02 µM); in test [26] it was 4 µg/mL (≈ 3.51 µM); in test [28] it was 1 µg/mL (≈ 0.877 µM); in test [34], 8 µg/mL (≈ 7.02 µM).
